Assay [1] addresses T1, V2 Recepter (rat kidney plasma membrane preparations) (Rattus norvegicus, UniProt Q00788).
T1 construct: rat kidney plasma membrane preparations; from tissue; host or cells: rat kidney plasma membranes
As to the kind of experiment: V2 Recepter binding assay. The settings on record: [3H]-Arg-vasopressin 4×10^-10 M, 4° C., pH 8.0, rat kidney plasma membrane. On the procedure: Test 2: V2 Recepter binding assay
By using rat kidney plasma membrane preparations prepared according to Hechter's method [by O. Hechter: J. Bio. Chem., 2.53, 3211 (1978)], the plasma membrane (100,000 dpm, 4×10^-10 M) of [^3 H]-Arg-vasopressin and a test compound (0.6 mg, 10^-10 to 10^-5 M) were incubated at 4° C. for 3 hours in 250 μl (in total volume) of 100 mM Tris-HCl buffer (pH=8.0), containing, 5 mM MgCl2, 1 mM EDTA and 0.1% BSA. After the incubation, the mixture, the mixture was filtered by using a glass filter (GF/F) so as to separate the membrane preparation combining with vasopressin, then washed twice with the buffer (5 ml). This glass filter was taken out and mixed with liquid scintillation cocktail. The amount of [^3 H]-vasopressin combining with the membrane was measured by a liquid scintillation counter and the rate of inhibitory effect of the test compound was calculated according to the following equation: Rate of the inhibitory
C1 : the amount of [^3 H]-vasopressin combining with the membrane in the presence of the testcompound of a known amount,
(§1) C0 : the amount of [^3 H]-vasopressin combining with the membrane in the absence of the test compound,
B1 : the amount of [^3 H]-vasopressin combining with the mebrane in the presence of the excess amount of vasopressin (10^-6 M).
The results are expressed as IC50 value, which is the concentration of the test compound required to achieve the inhibitory effect in the rate of 50%, and are shown in the following Table 157.

Assay [2] addresses T2, Oxytocin receptor (uterin muscle membrane preparation) (Rattus norvegicus, UniProt P70536).
T2 construct: was homogenized, which was used as a membrane; from tissue; host or cells: uterine muscle membranes from diethylstilbestrol-treated animals
T2 sequence (P70536 1-388): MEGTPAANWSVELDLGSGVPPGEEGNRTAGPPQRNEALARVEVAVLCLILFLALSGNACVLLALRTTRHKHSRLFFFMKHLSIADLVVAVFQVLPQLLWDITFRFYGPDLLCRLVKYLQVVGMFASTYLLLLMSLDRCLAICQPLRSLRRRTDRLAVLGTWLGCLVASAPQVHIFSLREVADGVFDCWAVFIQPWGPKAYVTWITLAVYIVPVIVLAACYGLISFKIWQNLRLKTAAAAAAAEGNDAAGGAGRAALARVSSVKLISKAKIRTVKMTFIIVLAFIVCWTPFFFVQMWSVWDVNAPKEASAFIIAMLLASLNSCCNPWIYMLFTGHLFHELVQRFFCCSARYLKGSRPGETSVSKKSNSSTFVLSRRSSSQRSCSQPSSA
As to the kind of experiment: Oxytocin receptor binding assay. The conditions noted are these: [3H]-oxytocin 10^-9 M, 25°, one hour, pH 8.0, uterin muscle membrane, DES-treated. An outline of the steps: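 Rat uterine membranes (0.2 mg; DES-primed day before) incubated 1 h at 25° with [3H]-oxytocin (10^-9 M) and compound (10^-9 to 10^-5 M) in 100 mM Tris-HCl pH 8.0, 5 mM MgCl2, 1 mM EDTA, 0.1% BSA. Filter-bound radioactivity counted; nonspecific with 5×10^-6 M oxytocin; IC50 reported.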

Assay [3] deals with T3, V1 Recepter (rat liver plasma membrane preparations) (Rattus norvegicus, UniProt P30560).
T3 construct: rat liver plasma membrane preparations; from tissue; host or cells: rat liver plasma membranes
As to the kind of experiment: V1 Recepter binding assay. The conditions noted are these: [3H]-Arg-vasopressin 2×10^-10 M, 37° C., 10 minutes, pH 8.0, rat liver plasma membrane. On the procedure:
Test-1: V1 Recepter binding assay
By using rat liver plasma membrane preparations prepared according to Ichiraha's method [by Akira Ichihara: J. Bio. Chem., 258, 9283 (1983)], the plasma membrane (50,000 dpm, 2×10^-10 M) of [^3 H]-Arg-vasopressin and a test compound (60 μg, 10^-8 to 10^-4 M) were incubated at 37° C. for 10 minutes in 250 μl (in total volume) of 100 mM Tris-HCl buffer (pH=8.0), containing 5 mM MgCl2, 1 mM EDTA and 0.1% BSA. After the incubation, the mixture was filtered three times by using a glass filter (GF/F) so as to separate the membrane preparation by combining with vasopressin and then washed with the buffer (5 ml). This glass filter was taken out and mixed with a liquid of scintillation cocktail. The amount of [^3 H]-vasopressin combining with the membrane was measured by liquid scintillation counter and the rate of inhibitory effect of the test compound was calculated according to the following equation: […]
C1 : the amount of [^3 H]-vasopressin combining with the membrane in the presence of the test compound of a known amount,
as §1
B1 : the amount of [^3 H]-vasopressin combining with the membrane in the presence of the excess amount of vasopressin (10^-6 M).
The results are expressed as IC50 value, which is the concentration of the test compound required to achieve the inhitory effect in the rate of 50% and are shown in the following Table 156.

Consider 16 molecules from patent US5622947A, “Benzoheterocyclic compounds and vasopressin antagonist and oxytocin antagonist compositions containing a benzoheterocyclic compound” (Otsuka Pharmaceutical Co., Ltd., priority 1992, dated 1997).

SMILES strings stand for the structures. Structures can show the parent of a compound that is named as a salt.

The term IC50 denotes the concentration at which inhibition is half-maximal. A low value points to inhibition by little substance.

T1 sequence (Q00788 whole entry): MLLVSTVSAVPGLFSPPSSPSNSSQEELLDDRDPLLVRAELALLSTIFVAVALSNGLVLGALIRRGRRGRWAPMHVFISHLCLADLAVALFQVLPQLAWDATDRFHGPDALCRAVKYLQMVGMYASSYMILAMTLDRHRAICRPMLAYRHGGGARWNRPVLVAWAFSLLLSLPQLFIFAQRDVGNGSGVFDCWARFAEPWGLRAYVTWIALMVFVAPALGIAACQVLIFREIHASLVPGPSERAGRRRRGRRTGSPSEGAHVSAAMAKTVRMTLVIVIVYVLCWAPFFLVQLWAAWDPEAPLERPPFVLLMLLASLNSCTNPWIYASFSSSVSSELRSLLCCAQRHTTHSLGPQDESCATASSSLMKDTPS
T3 sequence (P30560 whole entry): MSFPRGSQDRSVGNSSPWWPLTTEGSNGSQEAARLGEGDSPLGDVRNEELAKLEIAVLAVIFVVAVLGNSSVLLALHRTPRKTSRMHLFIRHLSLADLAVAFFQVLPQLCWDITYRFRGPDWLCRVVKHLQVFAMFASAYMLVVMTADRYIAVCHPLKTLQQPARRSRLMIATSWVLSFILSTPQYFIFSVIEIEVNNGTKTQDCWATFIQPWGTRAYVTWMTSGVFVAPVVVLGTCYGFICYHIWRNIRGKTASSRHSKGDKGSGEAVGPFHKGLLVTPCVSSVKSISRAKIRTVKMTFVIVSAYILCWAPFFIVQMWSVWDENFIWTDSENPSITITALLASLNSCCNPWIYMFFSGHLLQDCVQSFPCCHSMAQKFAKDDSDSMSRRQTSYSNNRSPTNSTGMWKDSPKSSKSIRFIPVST

`COc1cc(NC(=O)c2ccccc2Cl)ccc1C(=O)N1CCCC(CC(=O)N(C)CCO)c2cc(Cl)ccc21` (stereo not drawn) [Example 88, 5-[N-Methyl-N-(2-hydroxyethyl)amino]-carbonylmethyl-7-chloro-1-[2-methoxy-4-(2-chlorobenzoylamino)benzoyl]-2,3,4,5-tetrahydo-1H-benzoazepine]: the concentration for half-maximal inhibition (IC50) in assay [1] was 2 nM; in assay [2], 58 nM; in assay [3] it was 10 nM.

With `COc1cc(NC(=O)c2ccccc2Cl)ccc1C(=O)N1CCCC(CC(=O)N2CCCN(C)CC2)c2cc(Cl)ccc21` (stereo not drawn) [Example 125, 5-(4-Methyl-1-homopiperazinyl)carbonylmethyl-7-chloro-1-[2-methoxy-4-(2-chlorobenzoylamino)benzoyl]-2,3,4,5-tetrahydro-1H-benzoazepine], the IC50 was 4 nM in assay [1], 37 nM in assay [2] and 8 nM in assay [3].

Turning to `COc1cc(NC(=O)c2ccccc2Cl)ccc1C(=O)N1CCCC(CC(=O)NCc2ccccn2)c2cc(Cl)ccc21` (stereo not drawn) [Example 126, 5-(2-Pyridylmethyl)aminocarbonylmethyl-7-chlor-[2-methoxy-4-(2-chlorobenzoylamino)benzoyl]-2,3,4,5-tetrahydro-1H-benzoazepine], the 50% inhibitory concentration (IC50) in assay [1] was determined as 5 nM; in assay [2], 73 nM; in assay [3], 24 nM.

For `COc1cc(NC(=O)c2ccccc2Cl)ccc1C(=O)N1CCCC(CC(=O)Nc2ccncc2)c2cc(Cl)ccc21` (stereo not drawn) [Example 127, 5-(4-Pyridyl)aminocarbonylmethyl-7-chloro-1-[2-methoxy-4-(2-chlorobenzoylamino)benzoyl]-2,3,4,5-tetrahydro-1H-benzoazepine], the results for the half-maximal inhibitory concentration (IC50) in assay [1], in assay [2] and in assay [3] were 4 nM, 32 nM and 23 nM, respectively.

On to `CCN1CCN(C(=O)COC2CCCN(C(=O)c3ccc(N4CCc5ccccc5C4=O)cc3)c3ccc(Cl)cc32)CC1` (stereo not drawn) [Example 128, 5-(4-Ethyl-1-piperazinyl)carbonylmethoxy-7-chloro-1-[4-(1-oxo-1,2,3,4-tetrahydroisoquinolin-2-yl)benzoyl]-2,3,4,5-tetrahydro-1H-benzoazepine], for which the half-maximal inhibitory concentration (IC50) in assay [1] worked out at 13 nM; in assay [2], 95 nM; in assay [3] it was 14 nM.

`COc1cc(NC(=O)c2ccccc2Cl)ccc1C(=O)N1CCCC(CC(=O)NCCc2ccccn2)c2cc(Cl)ccc21` (stereo not drawn) [Example 130, 5-[2-(2-Pyridyl)ethyl]aminocarbonylmethyl-7-chloro-1-[2-methoxy-4-(2-chlorobenzoylamino)benzoyl]-2,3,4,5-tetrahydro-1H-benzoazepine]: the 50% inhibitory concentration (IC50) was 4 nM in assay [1], 115 nM in assay [2] and 18 nM in assay [3].

For the molecule `CCN(CC)CCOC1CCCN(C(=O)c2ccc(N3Cc4ccccc4C3=O)cc2)c2ccc(Cl)cc21` (stereo not drawn) [Example 131, 5-(2-Diethylaminoethoxy)-7-chloro-1-[4-(1-oxoisoindolin-2-yl)benzoyl]-2,3,4,5-tetrahydro-1H-bezoazepine], the IC50 in assay [1] came to 170 nM; in assay [2], 1790 nM; in assay [3], 32 nM.

On to `CCN1CCN(C(=O)CCOC2CCCN(C(=O)c3ccc(N4Cc5ccccc5C4=O)cc3)c3ccc(Cl)cc32)CC1` (stereo not drawn) [Example 132, 5-(4-Ethyl-1-piperazinyl)carbonylethoxy-7-chloro-1-[4-(1-oxoisoindolin-2-yl)benzoyl]-2,3,4,5-tetrahydro-1H-benzoazepine], for which the IC50 in assay [1] stood at 120 nM; in assay [2], 478 nM; in assay [3] it was 90 nM.

Turning to `CNC(=S)NCCOC1CCCN(C(=O)c2ccc(NC(=O)c3ccccc3Cl)cc2OC)c2ccc(Cl)cc21` (stereo not drawn) [Example 133, 5-(2-Methylaminothiocarbonylaminoethoxy)-7-chloro-1-[2-methoxy-4-(2-chlorobenzoylamino)benzoyl]-2,3,4,5-tetrahydro-1H-benzoazepine], the IC50 in assay [1] stood at 49 nM; in assay [2] it was 72 nM; in assay [3] it was 20 nM.

With `COc1cc(NC(=O)c2ccccc2Cl)ccc1C(=O)N1CCCC(CC(=O)NCc2cnc(C)cn2)c2cc(Cl)ccc21` (stereo not drawn) [Example 134, 5-(5-Methyl-2-pyrazinyl)methylaminocarbonylmethyl-7-chloro-1-[2-methoxy-4-(2-chlorobenzoylamino)benzoyl]-2,3,4,5-tetrahydro-1H-benzoazepine], the IC50 in assay [1] was determined as 4 nM; in assay [2] it was 96 nM; in assay [3], 12 nM.

With `COc1cc(NC(=O)c2ccccc2Cl)ccc1C(=O)N1CCCC(OCCNC(C)=N)c2cc(Cl)ccc21` (stereo not drawn) [Example 135, 5-[2-(1-Iminoethyl)aminoethoxy]-7-chloro-1-[2-methoxy-4-(2-chlorobenzoylamino)benzoyl]-2,3,4,5-tetrahydro-1H-benzoazepine.cndot.hydrochloride], the IC50 amounted to 4.9 nM in assay [1], 146 nM in assay [2] and 18 nM in assay [3].

Consider `COc1cc(NC(=O)c2ccccc2Cl)ccc1C(=O)N1CCCC(OCCNC(N)=O)c2cc(Cl)ccc21` (stereo not drawn) [Example 136, 5-(2-Ureidoethoxy)-7-chloro-1-[2-methoxy-4-(2-chlorobenzoylamino)benzoyl]-2,3,4,5-tetrahydro-1H-benzoazepine], for which the IC50 in assay [1] was found to be 4.3 nM; in assay [2], 151 nM; in assay [3], 37 nM.

`CCOC(=O)NCCOC1CCCN(C(=O)c2ccc(NC(=O)c3ccccc3Cl)cc2OC)c2ccc(Cl)cc21` (stereo not drawn) [Example 137, 5-(2-Ethoxycarbonylaminoethoxy)-7-chloro-1-[2-methoxy-4-(2-chlorobenzoylamino)benzoyl]-2,3,4,5-tetrahydro-1H-benzoazepine]: the IC50 stood at 5 nM in assay [1], 451 nM in assay [2] and 17 nM in assay [3].

Take `COc1cc(NC(=O)c2ccccc2Cl)ccc1C(=O)N1CCCC(OCCNC2CC2)c2cc(Cl)ccc21` (stereo not drawn) [Example 138, 5-(2-Cyclopropylaminoethoxy)-7-chloro-1-[2-methoxy-4-(2-chlorobenzoylamino)benzoyl]-2,3,4,5-tetrahydro-1H-benzoazepine.cndot.hydrochloride]: the IC50 in assay [1] was 3 nM; in assay [2], 233 nM; in assay [3], 5 nM.

Take `COc1cc(NC(=O)c2ccccc2Cl)ccc1C(=O)N1CCCC(OCCSc2ccncc2)c2cc(Cl)ccc21` (stereo not drawn) [Example 139, 5-[2-(4-Pyridyl)thioethoxy]-7-chloro-1-[2-methoxy-4-(2-chlorobenzoylamino)benzoyl]-2,3,4,5-tetrahydro-1H-benzoazepine]: the values for the concentration for half-maximal inhibition (IC50) in assay [1], in assay [2] and in assay [3] were 12 nM, 1000 nM and 120 nM, respectively.

Turning to `COc1cc(NC(=O)c2ccccc2Cl)ccc1C(=O)N1CCCC(OCCSc2nccc(C)n2)c2cc(Cl)ccc21` (stereo not drawn) [Example 140], the concentration for half-maximal inhibition (IC50) is 46 nM in assay [1], 4290 nM in assay [2] and 280 nM in assay [3].
